Reference: patent publication US20240335395A1, “COMPOSITIONS AND METHODS FOR PREVENTING AND/OR TREATING DISEASE ASSOCIATED WITH IL-23 EXPRESSION” (ALLSPIM, priority 2021, published 2024)

What was measured:
[1] = test system: IL-23; experiment: IL-23 protein in culture supernatant of RA-patient synovial cells; assay type: cell-based, human; settings: increasing concentrations
[2] = test system: MSU-induced knee joint edema; experiment: MSU-induced knee joint edema in mice; assay type: in vivo, mouse; settings: 20 h
Procedure: (§1) 2,4-D, isolated and purified from Chloranthus spicatus (purity≥98%), was purchased from BOC Science (Shirley, NY). Colchicine (CLC) (purity≥96%) and dexamethasone (DEX) (purity≥98%) were purchased from Sigma. Mice (six per group) were treated with 2,4-D (100 mg/kg or 20 mg/kg, i.p.), CLC (1 mg/kg or 0.2 mg/kg, i.p.), DEX (0.5 mg/kg or 0.1 mg/kg, i.p.), or vehicle (20% polyoxyethylenesorbitan monooleate (Tween 80) plus PBS) 30 min before intra-articular stimulus with MSU (100 μg/10 μL, i.a.). Six mice with intra-articular injection with PBS alone served as a negative control.
Preparation of monosodium urate crystal (MSU). MSU crystals were prepared as described previously (Ruiz-Miyazawa et al., 2017). Briefly, 800 mg of monosodium urate was dissolved in 155 ml of boiling milli-Q water containing 2N NaOH. After pH adjustment to 8.9, the solution was cooled gradually by stirring at room temperature and crystallized overnight at 4° C. Crystals were collected, and centrifuged at 3,000×g for 2 min at 4° C. The crystals were evaporated and sterilized by heating at 180° C. for 2 h and stored in a sterile environment until use. The load of endotoxin present in the MSU crystals was determined using a ToxinSensor^TM Single Test Kit (GenScript).
(§2) Induction of MSU-Induced Knee Joint Inflammation. Male ICR (CD-1) mice (35-45 g, 10-12 weeks) were purchased from VitalRiver Inc (Beijing, China) and were kept in an animal care facility under controlled temperature of 21±1° C., humidity, and on a light/dark cycle, with ad libitum access to water and standard laboratory chow diet. Animal care and handling procedures were approved by the Animal Ethics Committee of GZUCM (Guangzhou University of Chinese Medicine). All efforts were made to minimize animal suffering and to reduce the number of animals used. Joint inflammation was induced by the intra-articular (i.a.) administration of MSU (200 μg/20 μl) into the right and left knee joints of mice under inhaled 3% isoflurane anesthesia. Control animals received an injection (i.a.) of sterile PBS (20 μL).
Evaluation of Knee Joint Edema. Knee joint edema was determined with a caliper (Mitutoyo) before (zero time), and after the intra-articular injection with MSU at the times indicated. Knee joint edema was determined for each mouse by the difference between the time points indicated on figures and the zero time (Ruiz-Miyazawa et al, 2017). The edema value is represented as Amm/joint.
Statistical Analysis. Data were analyzed using GraphPad Prism statistical software (GraphPad Software, Inc., United States-500.288, version 5.0). Results are presented as means±SEM or SD of measurements made on 6 mice per group, with statistical significance determined by two-way ANOVA, comparing each group to the control (“Model”) group. For in vitro experiments, microassays were performed in quadruplicate. p<0.05 was considered significant (*p<0.05, **p<0.01, ***p<0.001).

[3] = test system: MSU-induced leukocyte recruitment; experiment: MSU-induced leukocyte recruitment to the synovial cavity of knee joint; assay type: in vivo, mouse; settings: 20 h; 2,4-D 100 mg/kg, CLC 1 mg/kg, DEX 0.5 mg/kg
Procedure: as §1, §2
Histopathological Analysis. Knee joint was collected 20 h after MSU injection, fixed with 10% paraformaldehyde in PBS, and then decalcified for 10 days with EDTA and embedded in paraffin for histological analysis. […] Results are expressed as leukocytes infiltrate (cell/field) counted at the inflammatory foci within synovial cavity as indicative of synovitis. […]
Statistical Analysis. Data were analyzed using GraphPad Prism statistical software (GraphPad Software, Inc., United States-500.288, version 5.0). Results are presented as means±SEM or SD of measurements made on 6 mice per group, with statistical significance determined by two-way ANOVA, comparing each group to the control (“Model”) group. […]

[4] = test system: collagen induced arthritis (CIA) in DBA/1 mice; experiment: Collagen induced arthritis (CIA) in DBA/1 mice, clinical score; assay type: in vivo, mouse; settings: for decrease of mean clinical score compared with control group: as from day 5 post-treatment
Text: Induction of collagen induced arthritis (CIA) in DBA/1 mice treated with oral 2,4-D. Forty DBA/1 mice (8-12 weeks of age; 20 males and 20 females) were obtained from the Center for Experimental Animals in Beijing, China. The CIA model was established according to the standard Hooke Protocol (accessible at https://hookelabs.com/protocols/cialnduction_DBA1.html). Complete Freund's adjuvant (CFA) and incomplete Freund's adjuvant (IFA) were purchased from Hooke Laboratories. 35 days after immunization, the 40 immunized mice were distributed randomly into 4 groups (10 controls, 10 treated with 0.2 mg daily oral 2,4-D, 10 treated with 1 mg daily oral 2,4-D for 15 days). All animals were followed for an additional 15 days post-treatment.
CIA scoring. CIA is scored on a scale of 0 to 16 (0 to 4 for each paw, adding the scores for all 4 paws), using the following criteria:
Statistical analysis. Data are presented as the mean±SEM for the in vivo animal study. Statistical analysis was performed using Student's t-test (paired 2-sample testing).

Structure (SMILES): COc1cc(O)c(OC)c(O)c1C(=O)/C=C/c1ccccc1 [2,4-D, 2′,4′-dihydroxy-3′,6′-dimethoxychalcone]
- concentration of IL-23 protein in the culture supernatant [1]: significantly inhibited
- reduction of MSU-induced knee joint edema ([2]; high dose i.p.: 2,4-D 100 mg/kg, CLC 1 mg/kg, DEX 0.5 mg/kg): 68.4%
- reduction of MSU-induced knee joint edema ([2]; low dose i.p.: 2,4-D 20 mg/kg, DEX 0.1 mg/kg): 45.3%
- reduction of MSU-induced leukocyte recruitment [3]: 4.5 fold
- decrease of mean clinical score compared with control group ([4]; high dose 1 mg per day oral): 2- to 7 fold
- suppression of CIA after withdrawal of treatment ([4]; high dose, 15 days after withdrawal): maintained
- decrease of mean clinical score compared with control group ([4]; low dose 0.2 mg per day oral): 2- to 3 fold
